Assay [1] relates to MIA PaCa-2 human pancreatic carcinoma. Description: MIA PaCa-2 CCK-8 proliferation assay. It is filed as cell-based. The following applies: MIA PaCa-2 cells. In a few lines: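 Percent inhibition derived from CCK-8 optical signal, normalised between DMSO-only cells (0%) and cell-free medium containing DMSO as background. Cells: MIA PaCa-2 carrying 2 KRAS(G12C) copies; NCI-H358, NCI-H23 carrying 1 copy apiece. Concentrations spanned 1.02 nM–20 μM in threefold increments.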
In general terms: Formazan colour is commonly taken as a measure of viable cells.

For assay [2], the target named is T1, KRAS(G12C) (Homo sapiens, UniProt P01116, G12C). As to the kind of experiment: KRAS(G12C)/SOS1 homogeneous time-resolved fluorescence (HTRF) assay. On the set-up: purchased Cisbio 63ADK000CB16PEG. The following applies: absence of GTP, 4° C. for 3 hr, read-out: KRAS (G12C) binding. The gist of the method: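 Three-hour incubation at 4 °C of 3-fold compound dilutions (lowest 1.02 nM) with KRAS(G12C), SOS1 and detection reagents, GTP absent. Disruption of the KRAS(G12C)/SOS1 complex detected by time-resolved fluorescence.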
T1 sequence (P01116 1-188 isoform P01116-2 G12C): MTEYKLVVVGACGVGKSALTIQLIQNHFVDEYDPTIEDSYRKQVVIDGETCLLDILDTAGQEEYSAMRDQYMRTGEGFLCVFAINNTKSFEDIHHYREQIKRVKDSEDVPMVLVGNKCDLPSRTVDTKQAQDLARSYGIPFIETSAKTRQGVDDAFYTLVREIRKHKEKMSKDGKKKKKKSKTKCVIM

The target of assay [3] is T1, KRAS(G12C). As to the kind of experiment: KRAS(G12C) Western blot protein degradation assay in LU65A cells. It is filed as cell-based. Set-up: LU65A human lung cancer cell line, which expresses KRAS(G12C); host or cells: LU65A. The following applies: 6 hr. As to the method:
The following cancer cell lines were employed: BT-474 human breast carcinoma (ATCC, #HTB-20); MIA PaCa-2 human pancreatic carcinoma [2 copies KRAS(G12C)](ATCC, #CRL-1420); NCI-H23 human non-small cell lung cancer [1 copy KRAS(G12C)](ATCC, #CRL-5800); NCI-H358 human non-small cell lung cancer [1 copy KRAS(G12C)](ATCC, #CRL-5807); LU65A human lung carcinoma (Pharmaron, Beijing, China). Cell lines were cultured essentially according to ATCC and Pharmaron recommendations.
KRAS(G12C) Western Blot Protein Degradation Assay
The MIA PaCa-2 human pancreatic carcinoma cell line and LU65A human lung cancer cell line, which expresses KRAS(G12C), were seeded in 6- or 12-well tissue culture plates, and after 1 hr, test compounds were added at various concentrations and incubated at 37° C./5% CO2 for 48 hr (MIA Paca-2) and 6 hr (LU65A) respectively. Cells were then washed with cold PBS, aspirated and cold RIPA buffer containing a protease/phosphatase inhibitor cocktail was added to lyse cells. After centrifugation, the total protein concentrations of cell lysates were determined using the BCA protein assay. Samples were normalized for equivalent protein concentrations, 5×SDS-PAGE loading buffer added and denatured at 100° C. for 10 min. 20 μl of each sample/well was loaded on a SDS-PAGE gel and electrophoresed for 20 min at 80 V, then 120 V for 1.5 hr. Gels were then electroblotted to nitrocellulose membranes using a wet-transfer method at 250 mA for 2.5 hr. Membranes were incubated with blocking buffer for 1 hr and washed 3 times with TBST for 5 min. Membranes were then incubated with anti-KRAS (Sigma-Aldrich, #SAB1404011) and anti-β-Actin monoclonal antibodies (Cell Signaling Technology, #3700) diluted in blocking buffer at 4° C. overnight per the manufacturer's recommendations. After washing 3 times, blots were incubated with appropriately labeled secondary antibodies for 1 hr at room temperature and washed again. Fluorescence imaging and quantitation was performed using a LI-COR Odyssey. Results was analyzed using GraphPad Prism 7 software. Compound degradation of was determined by the following equation and DC50 values (the concentration at which 50% of the maximal degradation of KRAS occurs) calculated using GraphPad Prism 7 software:
% Inhibition=100−(D−B)/(S−B)*100%. • S: Fluorescence intensity of cells with antibody • D: Fluorescence intensity of compound-treated cells with antibody • B: Fluorescence intensity of cells without antibody
In general terms: A western blot detects proteins with antibodies after separation by electrophoresis.

A value given as a limit tells only on which side of the number the result lay.

As to `C=CC(=O)N1CCN(c2nc(OC[C@@H]3CC[C@H](CN4CCN(C(=O)C5CCN(Cc6ccc(-n7c(C(=O)NCC)nnc7-c7cc(CC)c(O)cc7O)cc6)CC5)CC4)N3C)nc3c2CCN(c2cccc4cccc(Cl)c24)C3)C[C@@H]1CC#N` [Compound 244, 4-(4-{[4-(4-{[(2R,5S)-5-({[7-(8-chloronaphthalen-1-yl)-4-[(3S)-3-(cyanomethyl)-4-(prop-2-enoyl)piperazin-1-yl]-5H,6H,8H-pyrido[3,4-d]pyrimidin-2-yl]oxy}methyl)-1-methylpyrrolidin-2-yl]methyl}piperazine-1-carbonyl)piperidin-1-yl]methyl}phenyl)-N-ethyl-5-(5-ethyl-2,4-dihydroxyphenyl)-1,2,4-triazole-3-carboxamide], in assay [1] (Homo sapiens, MIA PaCa-2, 72 h), the EC50 (as a rule, the concentration that produces a half-maximal response) is < 100 nM. Moreover, the IC50 in assay [2] was < 100 nM. Moreover, the DC50 (as a rule, the concentration giving 50% degradation) in assay [3] lay within 100 to 1000 nM.
`C=CC(=O)N1CCN(c2nc(OC[C@@H]3CC[C@H](CN4CCN(C(=O)C5CCN(Cc6ccc(-n7c(O)nnc7-c7cc(CC)c(O)cc7O)cc6)CC5)CC4)N3C)nc3c2CCN(c2cccc4cccc(Cl)c24)C3)C[C@@H]1CC#N` [Compound 245, 2-[(2S)-4-[7-(8-chloronaphthalen-1-yl)-2-{[(2S,5R)-5-({4-[1-({4-[3-(5-ethyl-2,4-di hydroxyphenyl)-5-hydroxy-1,2,4-triazol-4-yl]phenyl}methyl)piperidine-4-carbonyl]piperazin-1-yl}methyl)-1-methylpyrrolidin-2-yl]methoxy}-5H,6H,8H-pyrido [3,4-d]pyrimidin-4-yl]-1-(prop-2-enoyl)piperazin-2-yl]acetonitrile]: the EC50 in assay [1] (Homo sapiens, MIA PaCa-2, 72 h) lay within 100 to 1000 nM. Besides, in assay [2], the IC50 was < 100 nM. For the same compound, in assay [3], the DC50 is > 1000 nM.
In turn, `C=CC(=O)N1CCN(c2nc(OC[C@@H]3C[C@H](N4CCC(C(=O)N5CCN(Cc6ccc(-n7c(O)nnc7-c7cc(C(C)C)c(O)cc7O)cc6)CC5)CC4)CN3C)nc3c2CCN(c2cccc4ccccc24)C3)C[C@@H]1CC#N` [Compound 246, 2-[(2S)-4-(2-{[(2S,4S)-4-{4-[4-({4-[3-(2,4-dihydroxy-5-isopropylphenyl)-5-hydro-xy-1,2,4-triazol-4-yl]phenyl}methyl)piperazine-1-carbonyl]piperidin-1-yl}-1-methylpyrrolidin-2-yl]methoxy}-7-(naphthalen-1-yl)-5H,6H,8H-pyrido[3,4-d]pyrimidin-4-yl)-1-(prop-2-enoyl)piperazin-2-yl]acetonitrile] gave an EC50 in assay [1] (Homo sapiens, MIA PaCa-2, 72 h) of 100 to 1000 nM. Also, the IC50 in assay [2] was < 100 nM. The DC50 in assay [3] was > 1000 nM.
In the case of `C=CC(=O)N1CCN(c2nc(OC[C@@H]3C[C@H](N4CCC(C(=O)N5CCN(Cc6ccc(-n7c(O)nnc7-c7cc(C)c(O)cc7O)cc6)CC5)CC4)CN3C)nc3c2CCN(c2cccc4ccccc24)C3)C[C@@H]1CC#N` [Compound 247, 2-[(2S)-4-(2-{[(2S,4S)-4-{4-[4-({4-[3-(2,4-dihydroxy-5-methylphenyl)-5-hydroxy-1,2,4-triazol-4-yl]phenyl}methyl)piperazine-1-carbonyl]piperidin-1-yl}-1-methylpyrrolidin-2-yl]methoxy}-7-(naphthalen-1-yl)-5H,6H,8H-pyrido[3,4-d]pyrimidin-4-yl)-1-(prop-2-enoyl)piperazin-2-yl]acetonitrile], the EC50 in assay [1] (Homo sapiens, MIA PaCa-2, 72 h) is > 1000 nM. The IC50 in assay [2] is < 100 nM. For the same compound, the DC50 in assay [3] is > 1000 nM.
Turning to `C=CC(=O)N1CCN(c2nc(OC[C@@H]3C[C@H](N4CCC5(CCN(Cc6ccc(-n7c(O)nnc7-c7cc(C(C)C)c(O)cc7O)cc6)CC5)CC4)CN3C)nc3c2CCN(c2cccc4ccccc24)C3)C[C@@H]1CC#N` [Compound 248, 2-[(2S)-4-(2-{[(2S,4S)-4-[9-({4-[3-(2,4-dihydroxy-5-isopropylphenyl)-5-hydroxy-1,2,4-triazol-4-yl]phenyl}methyl)-3,9-diazaspiro[5.5]undecan-3-yl]-1-methylpyrrolidin-2-yl]methoxy}-7-(naphthalen-1-yl)-5H,6H,8H-pyrido[3,4-d]pyrimidin-4-yl)-1-(prop-2-enoyl)piperazin-2-yl]acetonitrile], in assay [1] (Homo sapiens, MIA PaCa-2, 72 h), the EC50 was 100 to 1000 nM. In addition, the IC50 in assay [2] lay in the range of 100 to 1000 nM. This compound also came in with a DC50 in assay [3] of 100 to 1000 nM.
`C=CC(=O)N1CCN(c2nc(OCCN3CCC(C(=O)N4CCN(Cc5ccc(-n6c(C(=O)NCC(F)(F)F)nnc6-c6cc(C)c(O)cc6O)cc5)CC4)CC3)nc3c2CCN(c2cccc4cccc(Cl)c24)C3)C[C@@H]1CC#N` [Compound 250, (S)-4-(4-((4-(1-(2-((4-(4-acryloyl-3-(cyanomethyl)piperazin-1-yl)-7-(8-chloronaphthalen-1-yl)-5,6,7,8-tetrahydropyrido[3,4-d]pyrimidin-2-yl)oxy)ethyl)piperidine-4-carbonyl)piperazin-1-yl)methyl)phenyl)-5-(2,4-dihydroxy-5-methylphenyl)-N-(2,2,2-trifluoroethyl)-4H-1,2,4-triazole-3-carboxamide] displayed an EC50 in assay [1] (72 hr) of 100 to 1000 nM. Besides, the IC50 in assay [2] was < 100 nM. The DC50 in assay [3] was > 1000 nM.
With `C=CC(=O)N1CCN(c2nc(OCCN3CCC(C(=O)N4CCN(Cc5ccc(-n6c(C(=O)NCC(F)(F)F)nnc6-c6cc(C)c(O)cc6O)cc5)CC4)CC3)nc3c2CCN(c2cccc4cccc(Cl)c24)C3)C[C@@H]1CC#N` [Compound 251, (S)-4-(4-((4-(1-(2-((4-(4-acryloyl-3-(cyanomethyl)piperazin-1-yl)-7-(8-chloronaphthalen-1-yl)-5,6,7,8-tetrahydropyrido[3,4-d]pyrimidin-2-yl)oxy)ethyl)piperidine-4-carbonyl)piperazin-1-yl)methyl)phenyl)-5-(2,4-dihydroxy-5-methylphenyl)-N-(2,2,2-trifluoroethyl)-4H-1,2,4-triazole-3-carboxamide], the EC50 in assay [1] (72 hr) is 100 to 1000 nM. Further, in assay [2], the IC50 is < 100 nM. Further, the DC50 in assay [3] was > 1000 nM.
With `C=CC(=O)N1CCN(c2nc(OC[C@@H]3C[C@H](N4CCN(Cc5ccc(-n6c(O)nnc6-c6cc(C)c(O)cc6O)cc5)CC4)CN3C)nc3c2CCN(c2cccc4cccc(Cl)c24)C3)C[C@@H]1CC#N` [Compound 252, 2-[(2S)-4-[7-(8-chloronaphthalen-1-yl)-2-{[(2S,4S)-4-[4-({4-[3-(2,4-dihydroxy-5-methylphenyl)-5-hydroxy-1,2,4-triazol-4-yl]phenyl}methyl)piperazin-1-yl]-1-methylpyrrolidin-2-yl]methoxy}-5H,6H,8H-pyrido[3,4-d]pyrimidin-4-yl]-1-(prop-2-enoyl)piperazin-2-yl]acetonitrile], in assay [1] (Homo sapiens, MIA PaCa-2, 72 h), the EC50 was > 1000 nM. Moreover, in assay [2], the IC50 was < 100 nM. Moreover, the DC50 in assay [3] was > 1000 nM.
In assay [1] (Homo sapiens, MIA PaCa-2, 72 h), `C=CC(=O)N1CCN(c2nc(OC[C@@H]3CC[C@H](CN4CCN(C(=O)C5CCN(Cc6ccc(-n7c(O)nnc7-c7cc(C(C)C)c(O)cc7O)cc6)CC5)CC4)N3C)nc3c2CCN(c2cccc4ccccc24)C3)C[C@@H]1CC#N` [Compound 255, 2-[(2S)-4-(2-{[(2S,5R)-5-({4-[1-({4-[3-(2,4-dihydroxy-5-isopropylphenyl)-5-hydroxy-1,2,4-triazol-4-yl]phenyl}methyl)piperidine-4-carbonyl]piperazin-1-yl}methyl)-1-methylpyrrolidin-2-yl]methoxy}-7-(naphthalen-1-yl)-5H,6H,8H-pyri-do[3,4-d]pyrimidin-4-yl)-1-(prop-2-enoyl)piperazin-2-yl] acetonitrile] returned an EC50 of 100 to 1000 nM. Also, in assay [2], the IC50 was < 100 nM. This compound returned a DC50 in assay [3] of 100 to 1000 nM.

The record behind these values is patent US20230391772A1, “METHODS AND COMPOSITIONS FOR TARGETED PROTEIN DEGRADATION” (Ranok Therapeutics (Hangzhou) Co. Ltd., priority 2020, published 2023).
